Values quoted from earlier work in patent publication US20070015686A1, “Dietary supplement for enhancing skeletal muscle mass, decreasing muscle protein degradation, downregulation of muscle catabolism pathways, and decreasing catabolism of muscle cells” (priority 2005, published 2007).
Values belong to the compound of their own block, whether it stands above or below them.

Assays:
[1] = target: T1, chymotrypsin-like activity of the proteasome complex (Homo sapiens, UniProt P28074); details: in vitro and in vivo; concentrations found in the serum of green tea drinkers
T1 sequence (P28074 60-263): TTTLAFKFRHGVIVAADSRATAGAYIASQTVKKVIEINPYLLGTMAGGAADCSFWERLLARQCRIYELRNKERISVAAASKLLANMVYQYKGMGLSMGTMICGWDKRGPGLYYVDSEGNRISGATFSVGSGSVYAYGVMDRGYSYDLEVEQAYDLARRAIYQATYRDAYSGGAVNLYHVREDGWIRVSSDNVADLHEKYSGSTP

[2] = laboratory tests; greater than vitamin C and vitamin E
[3] = ingestion of a concomitant carbohydrate
NF-κβ = details: following administration, during inflammation and infection

SMILES: CC(C)=C[C@H]1C[C@](O)([C@H]2CC[C@]3(C)[C@H]2CCC2[C@@]4(C)CC[C@H](O[C@@H]5OC[C@@H](O)[C@H](O[C@@H]6O[C@H](CO)[C@@H](O)[C@H](O)[C@H]6O)[C@@H]5O[C@H]5O[C@H](C)[C@@H](O)[C@H](O)[C@@H]5O)C(C)(C)C4CC[C@]23C)[C@H](O)O1 (stereo partly shown) [phanoside]
insulin-releasing activity (pancreatic β-cells): potent insulin-releasing activity

SMILES: O=C(O[C@@H]1Cc2c(O)cc(O)cc2O[C@@H]1c1ccc(O)c(O)c1)c1cc(O)c(O)c(O)c1 [ECG, epicatechin gallate]
inhibition of the chymotrypsin-like activity of the proteasome complex [1]: potent specific inhibitors

SMILES: CC1=C(/C=C/C(C)=C/C=C/C(C)=C/C=C/C=C(C)/C=C/C=C(C)/C=C/C2=C(C)C(=O)[C@@H](O)CC2(C)C)C(C)(C)C[C@H](O)C1=O [astaxanthin]
NF-κβ activation / nuclear translocation (NF-κβ): decreased NF-κβ activation

Second part, led by results:

inhibition of the chymotrypsin-like activity of the proteasome complex [1]: potent specific inhibitors
SMILES: O=C(O[C@@H]1Cc2c(O)cc(O)cc2O[C@@H]1c1cc(O)c(O)c(O)c1)c1cc(O)c(O)c(O)c1 [EGCG, epigallocatechin gallate]
antioxidant activity [2]: potent antioxidant activity

Creatine retention, increased efficiency [3]: up to 60%
SMILES: CN(CC(=O)O)C(=N)N [Creatine, N-methyl-N-guanyl Glycine]

inhibition of the chymotrypsin-like activity of the proteasome complex [1]: potent specific inhibitors
SMILES: O=C(OC[C@H]1O[C@@H](OC(=O)c2cc(O)c(O)c(OC(=O)c3cc(O)c(O)c(O)c3)c2)[C@H](OC(=O)c2cc(O)c(O)c(OC(=O)c3cc(O)c(O)c(O)c3)c2)[C@@H](OC(=O)c2cc(O)c(O)c(OC(=O)c3cc(O)c(O)c(O)c3)c2)[C@@H]1OC(=O)c1cc(O)c(O)c(OC(=O)c2cc(O)c(O)c(O)c2)c1)c1cc(O)c(O)c(OC(=O)c2cc(O)c(O)c(O)c2)c1 [tannic acid]
